# Tests used:
# [1] = tested on: Gold blatt type renoprival hypertension rats (RHR); assay: Hypotensive effect, Tail-cuff method, RHR; type: in vivo, rat; conditions: 30 mg/kg oral, mean value ± standard deviation
# Method: (§1) Hypotensive effect of the compounds were measured by determining the maximum blood pressure of the test animals according to a procedure of Tail-cuff method.
# (§2) Test animals used were the following two types.
# (1) Gold blatt type renoprival hypertension rats (RHR)
# Wistar strain male rats having, 160-180 g of body weight, were anesthetized with ether and the left-side renal artery was pluged with a silver clip having 0.2 mm inside diameter, while the right-side renal artery was kept as it was without operation. Four (4) weeks after the operation, rats having the maximum blood pressure over 150 mmHg were selected and used as test animals which were abstained from food for overnight.
# (§3) Each of compounds to be tested were administered orally and the blood pressure was measured before the administration and 1, 2, 4, 6 and 8 hours after the administration. The blood pressure was measured by using Recorder (Rectihoriz type 8S, San-ei Instrument) and Electrosthygmomanometer PE-300 (Macro Bio-systems, Houston, Tex.).
# [2] = tested on: Deoxycorticosteroneacetate (DOCA)/saline hypertension rats (DHR); assay: Hypotensive effect, Tail-cuff method, DHR; type: in vivo, rat; conditions: 30 mg/kg oral, mean value ± standard deviation
# Method: as §1, §2
# (2) Deoxycorticosteroneacetate (DOCA)/saline hypertension rats (DHR)
# Wistar strain male rats having 150-170 g of body weight, were anesthetized with ether and the left-side kidney was enucleated. One (1) week after the operation, 10 mg/kg of DOCA was injected subcutaneously once a week and 1% NaCl aqueous solution was given as drinking water. Five (5) weeks after the operation, rats having the maximum blood pressure over 150 mmHg were selected and used as test animals which were abstained from food for overnight.
# as §3
# [3] = tested on: bastard dog; assay: Increasing effect of cerebral blood flow; type: in vivo; conditions: profunda femoris vein
# Method: Thus, a bastard dog (male, 12-20 kg of body weight) was fixed in a prone (position) and was anesthetized with 20 mg/kg of pentobarbital sodium and made forced breathing to kept the frequency of respiration at 20 times/minutes. Then, the skull was bared and the surface bone was removed to expose the venous sinus by using grinder and the venous blood was took out from the venas which was cannulizated. The amount of venous blood flow was measured by using an electromagnetic blood flow meter and next measured by using drop-counter by measuring the number of drops of blood per 10 seconds.
# The increasing effect of cerebral blood flow was calculated by comparing the number of blood drops in 30 seconds at the peak of increasement shown before and after the administration of compound to be tested. The each of compounds to be tested was dissolved in dimethylformamide and diluted with physiological saline solution and administered through a cannule being inserted into the profunda femoris vein.
# [4] = tested on: arterial papillary muscle; assay: Positive inotropic effect, blood-perfused arterial papillary muscle; set-up: species or system dog; conditions: into septal artery
# Method: Positive inotropic effects of the novel carbostyril derivatives of the present invention were tested according to a method described by M. Endoh and K. Hashimoto, in "American Journal of Physiology", Vol. 218, No. 5, May, 1970, pages 1459-1463 as follows:
# Adult bastard dogs of both sexes, weighing 8-12 kg, were anesthetized with pentobarbital-Na at a rate of 30 mg/kg by intraveneous administration. After another intraveneous administration of sodium heparin, 1,000 μ/kg, the test dog was sacrificed by blood letting. The heart of the dog was excised and immediately plunged into Locke's solution, then the arterial papillary muscle was excised out with interventicular septum. The septal artery was carefully isolated and cannulated with a polyethylene cannula and was ligated with thread. Septal arteries those of connected to other than the arterial papillary muscle were ligated with thread. Next, the donor adult bastard dogs, weighing 18-27 kg, were anesthetized with pentabarbital-Na (30 mg/kg, intraveneous injection), and further treated with intravenous administration of sodium heparin (1,000 μ/kg). The arterial papillary muscle was perfused through the septal artery being cannulated with the polyethylene cannula with the blood conducted from the carotid artery of the donor dog by aid of Peristaric pump. The perfusion pressure was maintained at 100 mmHg constantly. Then the muscle was electrically stimulated by an electronic stimulator through bipolar electrodes in contact with the interventicular septum. The strength of stimulation was 2 X (the minimum value for appearing the action), frequency 2 Hz, pulse duration 2 msec.
# The isometric contraction generated was measured through a force-displacement transducer. The amount of blood flow in the coronary arteries was measured by determining the amount of the blood flow conducted to the septal artery by electromagnetic flow meter. All the data were recorded on an ink-writing recorder.
# A solution containing a compound to be tested was injected into the septal artery through the rubber tube connected close to the shunk of the polyethylene cannula, in an amount of 10-30 μl.
# The results obtained is shown in Table 4, in which the increasement (%) of contraction is indicated as the ratio of the contractions before and after the administration (injection) of the solution containing the test compound.
molecule,measurement,setting,value
"6-{4-[N-(2-Hydroxyethyl)-N-cyclohexylaminocarbonyl]butoxy}-3,4-dihydrocarbostyril [Example 9]",Maximum blood pressure after the administration (difference),[1]; 1 hour,-10.1 ± 6.2 mmHg
same,Maximum blood pressure after the administration (difference),[1]; 2 hours,-11.6 ± 9.6 mmHg
same,Maximum blood pressure after the administration (difference),[1]; 4 hours,-14.2 ± 5.0 mmHg
same,Maximum blood pressure after the administration (difference),[1]; 6 hours,-8.0 ± 2.6 mmHg
same,Maximum blood pressure after the administration (difference),[2]; 1 hour,-51.2 ± 14.0 mmHg
same,Maximum blood pressure after the administration (difference),[2]; 2 hours,-44.6 ± 14.6 mmHg
same,Maximum blood pressure after the administration (difference),[2]; 4 hours,-42.4 ± 13.9 mmHg
same,Maximum blood pressure after the administration (difference),[2]; 6 hours,-34.0 ± 10.2 mmHg
same,Increasing effect of cerebral blood flow,[3]; dosage 100 μg/kg,85.3%
"6-{4-[N-(2-Hydroxybutyl)-N-cyclopentylaminocarbonyl]butoxy}-3,4-dihydrocarbostyril [Example 12]",Increasing effect of cerebral blood flow,[3]; dosage 300 μg/kg,73.5%
"6-{3-[N-(2-hydroxyethyl)-N-cyclohexylaminocarbonyl]propoxy}-3,4-dihydrocarbostyril [Example 2]",Maximum blood pressure after the administration (difference),[1]; 1 hour,-4.8 ± 6.4 mmHg
same,Maximum blood pressure after the administration (difference),[1]; 2 hours,-4.8 ± 3.7 mmHg
same,Maximum blood pressure after the administration (difference),[1]; 4 hours,-3.2 ± 4.0 mmHg
same,Maximum blood pressure after the administration (difference),[2]; 1 hour,-63.0 ± 9.1 mmHg
same,Maximum blood pressure after the administration (difference),[2]; 2 hours,-30.4 ± 9.9 mmHg
same,Maximum blood pressure after the administration (difference),[2]; 4 hours,-42.8 ± 5.5 mmHg
same,Maximum blood pressure after the administration (difference),[2]; 6 hours,-24.1 ± 6.8 mmHg
same,Increasing of inotropic,[4]; dosage 10 n mol,38.9%
same,Increasing of inotropic,[4]; dosage 30 n mol,94.3%
"COc1ccc(Cc2nccc3cc(OC)c(OC)cc23)cc1OC [Papaverin, papaverine, reference compound]",Increasing effect of cerebral blood flow,"[3]; dosage 1,000 μg/kg",86.0%
"6-{3-[N-(2-Hydroxybutyl)-N-cyclohexylaminocarbonyl]propoxy}-3,4-dihydrocarbostyril [Example 4]",Increasing effect of cerebral blood flow,[3]; dosage 300 μg/kg,64.2%
same,Increasing of inotropic,[4]; dosage 10 n mol,10%
same,Increasing of inotropic,[4]; dosage 100 n mol,62.5%
"6-{4-[N-(2-Hydroxypropyl)-N-cyclohexylaminocarbonyl]butoxy}-3,4-dihydrocarbostyril [Example 8]",Increasing of inotropic,[4]; dosage 30 n mol,38.7%
same,Increasing of inotropic,[4]; dosage 100 n mol,89.4%
"6-{4-[N-(2,3-Dihydroxypropyl)-N-cyclohexylaminocarbonyl]butoxy}carbostyril [Example 14]",Increasing effect of cerebral blood flow,[3]; dosage 100 μg/kg,51.6%
6-{4-[N-(2-Hydroxybutyl)-N-cyclohexylaminocarbonyl]butoxy}carbostyril [Example 13],Increasing effect of cerebral blood flow,[3]; dosage 30 μg/kg,98.9%
"6-{3-[N-(2-Hydroxyethyl)-N-cyclooctylaminocarbonyl]propoxy}-3,4-dihydrocarbostyril [Example 5]",Increasing effect of cerebral blood flow,[3]; dosage 100 μg/kg,43.5%
"7-{3-[N-(3-Hydroxypropyl)-N-cyclohexylaminocarbonyl]propoxy}-3,4-dihydrocarbostyril [Example 17]",Maximum blood pressure after the administration (difference),[1]; 1 hour,-25.5 ± 7.0 mmHg
same,Maximum blood pressure after the administration (difference),[1]; 2 hours,-23.3 ± 9.6 mmHg
same,Maximum blood pressure after the administration (difference),[1]; 4 hours,-27.0 ± 14.1 mmHg
same,Maximum blood pressure after the administration (difference),[1]; 6 hours,-33.7 ± 10.2 mmHg
same,Maximum blood pressure after the administration (difference),[1]; 8 hours,-29.8 ± 9.7 mmHg
same,Maximum blood pressure after the administration (difference),[2]; 1 hour,-2.5 ± 4.0 mmHg
same,Maximum blood pressure after the administration (difference),[2]; 2 hours,-8.7 ± 3.3 mmHg
same,Maximum blood pressure after the administration (difference),[2]; 4 hours,-9.3 ± 8.6 mmHg
same,Increasing effect of cerebral blood flow,[3]; dosage 100 μg/kg,34.4%
"6-{5-[N-(2-Hydroxybutyl)-N-cyclohexylaminocarbonyl]pentyloxy}-3,4-dihydrocarbostyril [Example 16]",Maximum blood pressure after the administration (difference),[2]; 1 hour,-20.2 ± 8.0 mmHg
same,Maximum blood pressure after the administration (difference),[2]; 2 hours,-21.2 ± 9.7 mmHg
same,Maximum blood pressure after the administration (difference),[2]; 4 hours,-16.2 ± 6.8 mmHg
same,Maximum blood pressure after the administration (difference),[2]; 6 hours,-6.5 ± 8.5 mmHg
same,Increasing effect of cerebral blood flow,[3]; dosage 100 μg/kg,63.2%
6-{3-[N-(4-Hydroxybutyl)-N-cyclohexylaminocarbonyl]propoxy}carbostyril [Example 7],Increasing effect of cerebral blood flow,[3]; dosage 300 μg/kg,80.2%

# From patent publication US4435404A, “Carbostyril derivatives” (priority 1980, dated 1984)
